Assay results reported in patent publication US7998681B2, “Diagnosis and therapy of antibody-mediated inflammatory auto-immune disorders” (Los Angeles Biomedical Research Institute at Harbor-UCLA …, priority 2000, dated 2011).

Assays:
Type in all cases: cell-based, human
IL-16 = IL-16 ELISA of medium from treated fibroblasts, GD donors; details: GD, limit of detection 20 pg/ml
Description: (§1) In addition to its therapeutic aspects, the present invention also relates to a diagnostic method for detecting the presence of antibody-activated fibroblasts in the patient. Applicants believe that several auto immune diseases or disorders are associated with antibody-activated fibroblasts. […] Altered levels of these chemoattractants can be detected in various biological samples in mammals, preferably humans. Levels of IL-16 and/or RANTES may be monitored in a patient, using standard techniques, as an indication of the deleterious aspects of the disease condition. Biological samples, including but not limited to serum, vitreous humor, aqueous humor, synovial fluid, and tissue, will be drawn from the patient using standard techniques. Particularly preferred are serum samples. The measurement of the IL-16 and RANTES levels may be monitored using any method possible to detect the levels of these proteins in biological samples. A preferred method of analysis is by ELISA as described in Sciaky, D. et al., J. Immunol. 164(7):3806-14, 2000. An ELISA specific for IL-16 can be used to assess the levels released by fibroblasts as described previously in Lim, K. G. et al., J. Immunol. 156(7): 2566-70, 1996. An ELISA specific for RANTES can be used according to the manufacturer's specification (BioSource Intl., Camarillo, Calif.).
(§2) The levels of IL-16 and RANTES were then assessed with specific ELISAs. The ELISA assay for IL-16 is performed essentially as discussed in Sciaky D., Brazer, W., Center, D. M., Cruikshank, W. W. and Smith, T. J.: Cultured human fibroblasts express constitutive IL-16 mRNA: Cytokine induction of active IL-16 protein synthesis through a caspase-3-dependent mechanism. J. Immunol. 164(7):3806-14, 2000). An ELISA (BioSource) for RANTES was performed according to the manufacturer's instructions.

RANTES = RANTES ELISA of medium from treated fibroblasts, GD donors; details: GD, limit of detection 15 pg/ml
Description: as §1, §2

[1] = test system: Thy-1^+ and Thy-1^− fibroblasts; experiment: IL-8 production in Thy-1+ and Thy-1- orbital fibroblast subsets; details: IL-1β treated
Description: FIGS. 11A-11C show differential production in TAO-derived Thy-1^+ and Thy-1^− subsets of PGE2 (11A) and IL-8 in response to IL-1β stimulation (11B), and IL-16 in response to stimulation with Graves' IgG (11C).
With regard to cytokine expression, both subsets fail to generate detectable IL-6 under basal culture conditions but synthesize high levels of the cytokine when treated with IL-1β. The magnitude of these responses is similar in the two fibroblast populations. Similarly, both subsets express low basal levels of IL-8 (FIG. 11B). When treated with IL-1β, Thy-1^− fibroblasts synthesize and release extremely high levels of IL-8 and this induction is substantially (5.5-fold) greater than that occurring in the Thy-1^+ subset.

IL-1β: pro-inflammatory cytokine used to activate fibroblasts
IL-16 (IL-16; strain 1, Orbit): 71 ± 9 pg/mL
IL-16 (IL-16; strain 2, Orbit): 82 ± 9 pg/mL
IL-16 (IL-16; strain 3, Abdominal skin): 82 ± 9 pg/mL
IL-16 (IL-16; strain 4, Orbit): 194 ± 29 pg/mL
IL-16 (IL-16; strain 6, Neck skin): 116 ± 27 pg/mL
IL-16 (IL-16; strain 7, Pretibial skin): 194 ± 29 pg/mL
IL-16 (IL-16; strain 8, Pretibial skin): 79 ± 11 pg/mL
IL-16 (IL-16; strain 9, Orbit): 218 ± 33 pg/mL
IL-16 (IL-16; strain 10, Orbit): 246 ± 32 pg/mL
IL-16 (IL-16; strain 11, Orbit): 94 ± 12 pg/mL
RANTES (RANTES; strain 1, Orbit): 84 ± 8 pg/mL
RANTES (RANTES; strain 2, Orbit): 116 ± 11 pg/mL
RANTES (RANTES; strain 3, Abdominal skin): 116 ± 11 pg/mL
RANTES (RANTES; strain 4, Orbit): 128 ± 26 pg/mL
RANTES (RANTES; strain 6, Neck skin): 253 ± 42 pg/mL
RANTES (RANTES; strain 7, Pretibial skin): 128 ± 26 pg/mL
RANTES (RANTES; strain 9, Orbit): 78 ± 21 pg/mL
RANTES (RANTES; strain 10, Orbit): 214 ± 30 pg/mL
RANTES (RANTES; strain 11, Orbit): 69 ± 6 pg/mL
IL-8 induction in Thy-1^− relative to Thy-1^+ subset [1]: 5.5 fold
